Test results from US9771344B2, “Peloruside analogs” (Universiteit Gent, priority 2013, dated 2017).

Key:
[1] = test system: cytoplasmic microtubule complex; test: Immunocytochemistry of the cytoplasmic microtubule complex; format: cell-based, rat kangaroo (Potorous tridactylus); conditions: PtK2 cells
Method: The PtK2 cell line was established from the kidney tissue of an adult male rat kangaroo (Potorous tridactylus).
Cells were seeded on glass coverslips in culture medium, supplemented with fetal bovine serum, at an initial concentration of 10,000/coverslip. After incubation overnight to allow spreading, treatments started at 37° C. for 1, 4 or 24 h. Cultures were then rinsed with phosphate-buffered saline and fixed in methanol at −20° C. The primary rabbit anti-tubulin polyclonal antibody was a gift from Dr. De Brabander (Janssen Life Sciences, Beerse, Belgium).
PtK2 cells were treated with DMSO (solvent control), JC168, or paclitaxel (positive control). After 1 hour, 4 hours, and 24 hours of incubation, cells were fixed and stained for the cytoplasmic microtubule complex.

MO4 cells [2] = test: Sulforhodamine B assay (cell growth); format: cell-based, murine; conditions: 4 days
Method: (§1) MO4 cells were treated with dimethyl sulfoxide (DMSO, solvent control), 0.001, 0.01, 0.1 or 1 μg/ml JC168 for 4 days. After said 4 days of incubation the cells were fixed and stained with sulforhodamine B to determine cellular protein content. Excess dye was removed by washing. Protein-bound dye was dissolved and optical density was measured. Data represent optical density (OD) as a percentage of solvent control (mean and standard deviation, n=6).
as §1, with “FIG. 2: Comparison of JC168 and paclitaxel to inhibit cell growth. MO4” for “MO4”, “1 μg/ml JC168” for “0.001, 0.01, 0.1”, “paclitaxel” for “JC168”, “n=6). […]” for “n=6).”
The sulforhodamine B (SRB) assay was used for cell density determination. […] The method allows a large number of samples to be tested within a few days, and is a quantitative assay for growth inhibition by microtubule inhibitors. […] The protein-bound dye was dissolved in 10 mM Tris base solution for OD determination at 510 nm using a microplate reader. […]

MO4 cells [3] = test: MTT assay (MTT conversion); format: cell-based, murine; conditions: 4 days
Method: (§2) FIG. 3: JC168 inhibits MTT conversion. MO4 cells were treated with dimethyl sulfoxide (DMSO, solvent control), 0.001, 0.01, 0.1 or 1 μg/ml JC168 for 4 days. Then, 3-(4,5-dimethylthiazol-2-yl)-2,5-diphenyltetrazolium bromide was added and the cultures were incubated to allow the cells to reduce the MTT into formazan. The formazan was dissolved and optical density was measured. Data represent optical density (OD) as a percentage of solvent control (mean and standard deviation, n=6).
as §2, with “FIG. 4: Comparison of” for “FIG. 3:”, “JC168 and paclitaxel to inhibit” for “JC168 inhibits”, “control), 1 μg/ml JC168” for “control), 0.001, 0.01, 0.1”, “μg/ml paclitaxel” for “μg/ml JC168”
As test cells for functional assays MO4 cells were used, which are murine virally transformed fibrosarcoma-like cells. […]
MTT (3-(4,5-Dimethylthiazol-2-yl)-2,5-diphenyltetrazolium bromide, a yellow tetrazole), was reduced to purple formazan in living cells. […] The absorbance of this colored solution was quantified by measuring it at a wavelength between 500 and 600 nm by a spectrophotometer. […]

MDA-MB231 GFP-LUC cells = test: Collagen type I invasion assay; format: cell-based, human; conditions: for Histological sections of the collagen gels: cells on top of the gel: after 14 days
Method: Invading cells were counted by phase-contrast microscopy as cells with extensions penetrating into the gel. (A) Invasion was calculated as the percentage of invading cells per high powered field (mean and standard deviation, n=10). Microphotographs of representative cultures of MDA-MB231 GFP-LUC cells treated with DMSO (B), 1 μg/ml JC168 (C), and 1 μg/ml paclitaxel (D) after 24 hours of incubation on top of a collagen type I gel. Scalebar=100 μm.
These cells are derived from a human mammary carcinoma and were stably transfected with green fluorescent protein (GFP) and luciferase (LUC).
Tissue invasion requires infiltration into an extracellular matrix (ECM) dominated by networks of collagen type I. The invasion model, presented here, consists of native, acid-extracted rat tail collagen type I containing nonhelical telopeptides situated at the N- and C-terminal ends. These telopeptides play an important role in intermolecular covalent cross-links necessary for a gel architecture presenting itself as a structural barrier to cancer cell traffic. Collagen type I solution was prepared with a final concentration of 1 mg ml^−1 collagen type I by mixing the following pre-cooled (stored at 4° C.) components: 4 volumes collagen type I (stock is 3.49 mg ml^−1), 5 volumes of calcium- and magnesium-free Hank's balanced salt solution (CMF-HBSS), 1 volume of minimal essential medium (MEM) (10×), 1 volume of 0.25 M NaHCO3, 2.65 volumes of standard medium and 0.3 volumes of 1M NaOH to make the solution alkaline. The collagen type I solution was gently poured into the wells of a 6-well plate. The experimental set-up was placed at 37° C. in a humidified atmosphere with 10% CO2 in air for at least 1 h. After gelification, a cell suspension of MDA-MB231 GFP-LUC cells was added on top of the collagen gels and incubated for 24 hours. […] Invasion is calculated as the percentage of invading cells per high powered field and is expressed as the mean and standard deviation. The number of examined fields is 10. The sections were stained with hematoxylin-eosin.
MDA-MB231 GFP-LUC cells were treated with DMSO (solvent control), JC168, or paclitaxel (positive control) or left untreated (control) and incubated on a collagen type I gel. After 24 hours of incubation, invasion into the collagen was evaluated by phase-contrast microscopy. […] From this we can conclude that the number of invaded cells is clearly lower in the treated cultures.

MO4 cells [4] = test: Chick heart invasion assay; format: cell-based, murine; conditions: 1 μg/ml, invasion of MO4 cells into embryonic chick heart
Method: Aggregates of MO4 cells were prepared by diluting single dissociated cells to appropriate concentrations in 6 ml complete growth medium in a 50 ml Erlenmeyer flask and incubated on a Gyrotory shaker at 37° C. and 70 rpm in a humidified atmosphere with 10% CO2 in air for 72 h. The aggregates were confronted overnight on top of semi-solid agar medium with precultured heart fragments (PHF, diameter 0.4 mm) prepared from 9-day-old chick embryos. Suspension organotypic cultures were incubated in 1.5 ml culture medium with or without a test compound on a Gyrotory shaker at 120 rpm under a controlled atmosphere containing 10% CO2 in air. Cells were fixed in Bouin-Hollande's solution and embedded in paraffin for histologic determination of cell invasiveness. Consecutive sections were stained with haematoxylin-eosin. Invasion is defined as the progressive occupation of PHF by the confronting test cells. Microscopic analysis of all consecutive sections from a confronting culture allowed the reconstruction of the interaction between the cell aggregate and the PHF in three dimensions.
The observation of different patterns of interaction has led to the following scale:
Grade I and II are observed with non-invasive cell populations, while grade III an IV are typical of invasion. To evaluate progression with time, histological analysis was done on confronting cultures fixed after different incubation periods.
MO4 cells were confronted with precultured heart fragments and the organotypic cultures were incubated in suspension in the presence of DMSO (solvent control), JC168 or paclitaxel (positive control) for 2-4 days.

Compound	Effect on the cytoplasmic microtubule complex, 1 hour ([1]; 0.1 μg/ml)	Effect on the cytoplasmic microtubule complex, 4 hours ([1]; 0.1 μg/ml)	Effect on the cytoplasmic microtubule complex, 24 hours ([1]; 0.1 μg/ml)	Effect on the cytoplasmic microtubule complex, 1 hour ([1]; 1.0 μg/ml)	Effect on the cytoplasmic microtubule complex, 4 hours ([1]; 1.0 μg/ml)	Effect on the cytoplasmic microtubule complex, 24 hours ([1]; 1.0 μg/ml)	Potency to inhibit cell growth as compared to paclitaxel (MO4 cells [2]; 1 μg/ml each, FIG. 2) [%]	Effect on cell growth (sulforhodamine B, words) (MO4 cells [2]; 0.001-1 μg/ml, FIG. 1)	Potency to inhibit MTT conversion as compared to paclitaxel (MO4 cells [3]; 1 μg/ml each, FIG. 4) [%]	Effect on MTT conversion into formazan (MO4 cells [3]; 0.001-1 μg/ml, FIG. 3)	Potency to inhibit invasion in collagen type I as compared to paclitaxel (MDA-MB231 GFP-LUC cells; MDA-MB231 GFP-LUC cells, 24 hours) [%]	Effect on invasion into collagen type I (MDA-MB231 GFP-LUC cells; MDA-MB231 GFP-LUC cells, 24 hours, FIG. 5)	Histological sections of the collagen gels: cells on top of the gel (MDA-MB231 GFP-LUC cells)	Number of organotypic cultures classified Grade I (MO4 cells [4]; incubation 2 days)	Number of organotypic cultures classified Grade II (MO4 cells [4]; incubation 3 days)	Number of organotypic cultures classified Grade II (MO4 cells [4]; incubation 4 days)	Number of organotypic cultures classified Grade III (MO4 cells [4]; incubation 4 days)
CC[C@H](/C=C(/C)[C@@H]1C[C@@H](OC)C[C@H](O)C(C)(C)c2cccc(c2)C[C@@H](O)C(O)C(=O)O1)CO (stereo partly drawn) [JC168, (1′Z,3R,3′R,4S,7S,9S,11S)-3,4,11-Trihydroxy-7-(3′-hydroxymethyl-1′-methylpent-1′-enyl)-9-methoxy-12,12-dimethyl-6-oxabicyclo[11.3.1]heptadeca-1(17),13,15-trien-5-one]	disturbed	disturbed	disturbed	disturbed	disturbed	disturbed	5	inhibits cell growth	3	inhibits the conversion	89	inhibits invasion	low number of cells on top of the gel	n = 5	n = 5	n = 3	n = 3
CC(=O)O[C@H]1C(=O)[C@@]2(C)[C@H]([C@H](OC(=O)c3ccccc3)[C@]3(O)C[C@H](OC(=O)[C@H](O)[C@@H](NC(=O)c4ccccc4)c4ccccc4)C(C)=C1C3(C)C)[C@]1(OC(C)=O)CO[C@@H]1C[C@@H]2O [paclitaxel, reference compound]	normal	disturbed	disturbed	disturbed	disturbed	disturbed	–	–	–	–	–	–	low number of cells on top of the gel	–	–	n = 5	–
